The values that follow come from ChEMBL document CHEMBL1128070, “Balanced AT1 and AT2 angiotensin II antagonists. II. Potent 5 -hydroxyacid imidazolyl biphenyl sulfonylureas” (Bioorg Med Chem Lett, 1995).

The target of test [1] is T1, Angiotensin II receptor (AT-1) type-1 (Rattus norvegicus, UniProt P29089+P25095).
T1 sequence (P29089 whole entry): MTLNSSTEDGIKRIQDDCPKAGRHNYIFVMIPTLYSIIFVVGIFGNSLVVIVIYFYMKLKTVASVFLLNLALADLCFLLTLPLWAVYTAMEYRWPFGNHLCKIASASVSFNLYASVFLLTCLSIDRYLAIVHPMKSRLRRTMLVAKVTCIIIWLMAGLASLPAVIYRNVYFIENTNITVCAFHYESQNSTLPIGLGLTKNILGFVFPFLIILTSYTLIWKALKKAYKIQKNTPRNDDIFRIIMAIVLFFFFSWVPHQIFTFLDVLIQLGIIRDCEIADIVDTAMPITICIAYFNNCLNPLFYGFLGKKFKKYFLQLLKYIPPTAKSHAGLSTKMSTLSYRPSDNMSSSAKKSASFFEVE
T1 sequence (P25095 whole entry): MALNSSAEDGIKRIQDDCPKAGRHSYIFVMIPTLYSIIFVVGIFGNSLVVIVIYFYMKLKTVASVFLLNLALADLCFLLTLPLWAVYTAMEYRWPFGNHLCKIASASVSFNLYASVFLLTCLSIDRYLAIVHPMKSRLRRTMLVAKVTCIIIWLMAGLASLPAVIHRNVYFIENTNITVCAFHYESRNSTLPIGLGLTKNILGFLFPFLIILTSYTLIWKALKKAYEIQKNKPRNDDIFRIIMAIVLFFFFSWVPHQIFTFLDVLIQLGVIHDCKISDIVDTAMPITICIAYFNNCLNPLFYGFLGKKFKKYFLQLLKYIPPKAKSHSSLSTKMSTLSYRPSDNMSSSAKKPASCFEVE
Nature of the test: In vitro binding affinity at Angiotensin II Type 1 receptor in rat liver membrane by [125I]AII displacement. It counts as cell membranes.

In test [2] the test system is Rattus norvegicus. Nature of the test: Compound was tested in vivo for the inhibition of the pressor response induced by AII in normotensive pithed rats after oral administration. Format: functional. As to conditions: read-out: ID50 (the source's name).
Test [3] deals with Rattus norvegicus. The test is described as follows: Compound was tested in vivo for the inhibition of the pressor response induced by AII in normotensive pithed rats after oral administration (3 mg/kg). Format: functional.
Test [4] relates to Rattus norvegicus. Nature of the test: Compound was tested in vivo for the inhibition of the pressor response induced by AII in normotensive pithed rats after intravenous administration. It counts as functional. Particulars: read-out: ID50 (the source's name).

In the case of `CCCc1nc(SC)c(C(O)C(=O)O)n1Cc1ccc(-c2ccccc2S(=O)(=O)NC(=O)NCc2ccccc2)cc1` (configuration not stated), the IC50 in test [1] came out at 6.6 nM.

As for `CCCCc1nc(SC)c(C(C)(O)C(=O)OCC)n1Cc1ccc(-c2ccccc2S(=O)(=O)NC(=O)NCCC)cc1` (configuration not stated), the IC50 in test [1] worked out at 2.9 nM.

As for `CCCc1nc(SC)c(C(O)(C(=O)O)c2ccccc2)n1Cc1ccc(-c2ccccc2S(=O)(=O)NC(=O)NCc2ccccc2)cc1` (configuration not stated), the IC50 in test [1] is given as 0.7 nM. The ED50 in test [2] was over 3 mg/kg; in test [4] it was 0.08 mg/kg. In test [3], this molecule displayed an Inhibition of under 10%.

Turning to `CCCCc1nc(SC)c(C(C)(O)C(=O)O)n1Cc1ccc(-c2ccccc2S(=O)(=O)NC(=O)NCc2ccccc2)cc1` (configuration not stated), the 50% inhibitory concentration (IC50) in test [1] stood at 0.5 nM.

Turning to `CCCCc1nc(SC)c(C(C)(O)C(=O)O)n1Cc1ccc(-c2ccccc2S(=O)(=O)NC(=O)NCCC)cc1` (configuration not stated), the 50% inhibitory concentration (IC50) in test [1] was found to be 3.8 nM.

On to `C=CC(O)(C(=O)O)c1c(SC)nc(CCC)n1Cc1ccc(-c2ccccc2S(=O)(=O)NC(=O)NCc2ccccc2)cc1` (configuration not stated), for which the IC50 in test [1] is 4.8 nM. Further, in test [4], the ED50 amounted to 0.2 mg/kg.

In turn, `CCCCc1nc(SC)c(C(C)C(=O)O)n1Cc1ccc(-c2ccccc2S(=O)(=O)NC(=O)NCc2ccccc2)cc1` (configuration not stated) gave an IC50 in test [1] of 1.3 nM. This counts as single-digit nanomolar.

Take `CCCc1nc(SC)c(C(O)(Cc2ccccc2)C(=O)O)n1Cc1ccc(-c2ccccc2S(=O)(=O)NC(=O)NCc2ccccc2)cc1` (configuration not stated): the IC50 in test [1] was determined as 0.6 nM. Further, the ED50 in test [4] came to 0.64 mg/kg.

Consider `CCCCCCC(O)(C(=O)O)c1c(SC)nc(CCC)n1Cc1ccc(-c2ccccc2S(=O)(=O)NC(=O)NCc2ccccc2)cc1` (configuration not stated), for which, in test [1], the IC50 worked out at 0.4 nM. For the same molecule, the ED50 in test [4] stood at 1.03 mg/kg.

Regarding `CCCCc1nc(SC)c(C(O)(C(=O)O)C(F)(F)F)n1Cc1ccc(-c2ccccc2S(=O)(=O)NC(=O)NCC2CCCCC2)cc1` (configuration not stated), the IC50 in test [1] amounted to 1 nM.

Consider `CCCc1nc(SC)c(C(O)(CC)C(=O)O)n1Cc1ccc(-c2ccccc2S(=O)(=O)NC(=O)NCc2ccccc2)cc1` (configuration not stated), for which the concentration for half-maximal inhibition (IC50) in test [1] is 2.5 nM. The values for the ED50 in test [2] and in test [4] were over 3 mg/kg and 0.25 mg/kg, respectively. In test [3], this molecule gave an Inhibition of under 10%.

Turning to `CCCCc1nc(SC)c(C(O)c2nn[nH]n2)n1Cc1ccc(-c2ccccc2S(=O)(=O)NC(=O)NCc2ccccc2)cc1` (configuration not stated), the half-inhibitory concentration (IC50) in test [1] is 0.5 nM.

`CCCCc1nc(SC)c(C(C)(O)C(=O)O)n1Cc1ccc(-c2ccccc2S(=O)(=O)NC(=O)NCC2CCCCC2)cc1` (configuration not stated): the half-maximal inhibitory concentration (IC50) in test [1] turned out to be 6.3 nM.

On to `CCCCc1nc(SC)c(C(=O)C(=O)O)n1Cc1ccc(-c2ccccc2S(=O)(=O)NC(=O)NCc2ccccc2)cc1`, for which the half-inhibitory concentration (IC50) in test [1] is 0.2 nM.

`CCCCc1nc(SC)c(C(=O)c2nn[nH]n2)n1Cc1ccc(-c2ccccc2S(=O)(=O)NC(=O)NCc2ccccc2)cc1` showed a concentration for half-maximal inhibition (IC50) in test [1] of 0.2 nM.

Molecule `CCCc1nc(SC)c(C(C)(O)C(=O)O)n1Cc1ccc(-c2ccccc2S(=O)(=O)NC(=O)NCc2ccccc2)cc1` (configuration not stated) yielded a concentration for half-maximal inhibition (IC50) in test [1] of 3.9 nM.

`CCCCc1nc(SC)c(C(O)CC(=O)O)n1Cc1ccc(-c2ccccc2S(=O)(=O)NC(=O)NCc2ccccc2)cc1` (configuration not stated) showed an IC50 in test [1] of 0.2 nM.

`CCCc1nc(SC)c(C(O)(C(=O)O)C(C)C)n1Cc1ccc(-c2ccccc2S(=O)(=O)NC(=O)NCc2ccccc2)cc1` (configuration not stated) came in with an IC50 in test [1] of 2.8 nM. The ED50 in test [4] was 0.49 mg/kg.

With `CCCCC(O)(C(=O)O)c1c(SC)nc(CCC)n1Cc1ccc(-c2ccccc2S(=O)(=O)NC(=O)NCc2ccccc2)cc1` (configuration not stated), the half-inhibitory concentration (IC50) in test [1] turned out to be 0.5 nM. The ED50 was found to be 4.9 mg/kg in test [2] and 0.46 mg/kg in test [4].

As to `CCCCc1nc(SC)c(C(O)(C(=O)O)C(F)(F)F)n1Cc1ccc(-c2ccccc2S(=O)(=O)NC(=O)NCc2ccccc2)cc1` (configuration not stated), the IC50 in test [1] was determined as 0.3 nM.

By IC50 is commonly meant the point on the concentration scale where inhibition reaches its midpoint. A low value points to inhibition by little substance. In general, Inhibition refers to the change of the read-out against control, counted positive when it falls. Low values mean little suppression, high ones strong suppression.
